Assays:
[1] = test system: cytochrome p450 (CYP) IAI gene; assay: MC RT-PCR with Celi competitive templates: induction of CYPIAI gene expression in β-napthoflavone-exposed BEP2D cells; assay type: cell-based, human; details: β-napthoflavone 10 μM, varying times, control 0.1% DMSO, cDNA loading matched by GAPDH native/competitive template bands
Procedure: (§1) In a second set of experiments, multiplex competitive reverse transcriptase polymerase chain reaction (MC RT-PCR) with competitive templates were prepared by the Celi method to evaluate the cytochrome p450 (CYP) IAI gene in β-napthoflavone-exposed BEP2D cells. The induction of CYPIAI gene expression was evaluated using both MC RT-PCR with Celi competitive templates, and Northern analysis. Competitive templates were prepared for both the CYPIAI and GAPDH genes. The primers used to prepare the competitive template for GAPDH were: […]
The PCR amplification conditions were the same as described for experiments using the competitive templates prepared for GAPDH and GSHPx by the Higuchi method except the annealing temperature was 55 degrees centigrade and the amplification was carried out for 38 cycles.
Because the native and competitive templates separate without prior restriction endonuclease digestion, samples were taken directly from the PCR reaction tube and applied to ethidium bromide stained 3% Nusieve, 1% LE agarose gels. It was then possible to quantify the products by taking a negative photograph of the gel using Polaroid 665 positive/negative instant film, subjecting the negative photograph to densitometry. […]

[2] = test system: cytochrome p450 IA1 (CYPIA1); assay: Northern analysis of CYPIAI gene expression in β-napthoflavone-exposed BEP2D cells; assay type: cell-based, human; details: β-napthoflavone 10 μM, varying times, control 0.1% DMSO, 32P-labeled CYPIAI cDNA probe
Procedure: as §1
RNA from BEP2D cells incubated for varying times with β-napthoflavone (10 μM) was either electrophoresed on a 1% LE formaldehyde denaturing gel for Northern analysis or MC RT-PCR amplified, as described above. For Northern analysis, following transfer of the RNA to GeneScreen, the filters were hybridized with ^32P-labeled CYPIAI cDNA.

band representing the native CYPIAI gene, exposed cells compared to control cells [1]: much more strongly represented | CYPIAI gene expression by Northern analysis [2]: increase
Compound: O=c1cc(-c2ccccc2)oc2ccc3ccccc3c12 [β-napthoflavone]

Reference: patent US8981068B2, “Compositions of standardized mixtures for determining an amount of a nucleic acid” (Gene Express, Inc., priority 2005, dated 2015)
